# Data reported in the supplement of paper PMC10307832.
# Assays:
# Experiment in all cases: relative viability (nuclei count vs DMSO), 5 days (fraction); higher = more cells survive
# AZD6482 + Trametinib = compound: Cc1cc([C@@H](C)Nc2ccccc2C(=O)O)c2nc(N3CCOCC3)cc(=O)n2c1 [AZD6482] + CC(=O)Nc1cccc(-n2c(=O)n(C3CC3)c(=O)c3c(Nc4ccc(I)cc4F)n(C)c(=O)c(C)c32)c1 [Trametinib] (partner 0.02 µM)
# Procedure, shortened: (§1)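 Lung cancer cell lines in 1536-well plates were dosed by pin tool the day after seeding, either with one drug alone or with a fixed anchor-drug dose plus five library-drug doses (not always all listed) in √10 steps. After 5 days, cells were fixed and their nuclei stained in one step (final 0.05% Triton X-100, 1% formaldehyde, 1 ug/ml Hoechst), then counted on 4× images. Relative viability is the nuclei count in treated wells divided by that in vehicle wells. Values are medians of duplicate plates.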
# AZD6482 + Pictilisib = compound: Cc1cc([C@@H](C)Nc2ccccc2C(=O)O)c2nc(N3CCOCC3)cc(=O)n2c1 [AZD6482] + CS(=O)(=O)N1CCN(Cc2cc3nc(-c4cccc5[nH]ncc45)nc(N4CCOCC4)c3s2)CC1 [Pictilisib] (partner 1 µM)
# Procedure, shortened: as §1
# [1] = compound: COc1cc2nc(N3CCCN(C)CC3)nc(NC3CCN(Cc4ccccc4)CC3)c2cc1OC + Cc1nc(Nc2ncc(C(=O)Nc3c(C)cccc3Cl)s2)cc(N2CCN(CCO)CC2)n1 [Dasatinib] (partner 0.075 µM)
# Procedure, shortened: as §1
# AZD6482 + Foretinib = compound: Cc1cc([C@@H](C)Nc2ccccc2C(=O)O)c2nc(N3CCOCC3)cc(=O)n2c1 [AZD6482] + COc1cc2c(Oc3ccc(NC(=O)C4(C(=O)Nc5ccc(F)cc5)CC4)cc3F)ccnc2cc1OCCCN1CCOCC1 [Foretinib] (partner 0.25 µM)
# Procedure, shortened: as §1
Cell Line,relative viability (AZD6482 + Trametinib; first compound 0.08 µM),relative viability (AZD6482 + Trametinib; first compound 0.253 µM),relative viability (AZD6482 + Trametinib; first compound 0.8 µM),relative viability (AZD6482 + Trametinib; first compound 2.53 µM),relative viability (AZD6482 + Trametinib; first compound 8 µM),relative viability (AZD6482 + Pictilisib; first compound 0.08 µM),relative viability (AZD6482 + Pictilisib; first compound 0.253 µM),relative viability (AZD6482 + Pictilisib; first compound 0.8 µM),relative viability (AZD6482 + Pictilisib; first compound 2.53 µM),relative viability (AZD6482 + Pictilisib; first compound 8 µM),relative viability ([1]; first compound 0.2 µM),relative viability ([1]; first compound 0.6325 µM),relative viability ([1]; first compound 2 µM),relative viability ([1]; first compound 6.325 µM),relative viability (AZD6482 + Foretinib; first compound 0.08 µM),relative viability (AZD6482 + Foretinib; first compound 0.253 µM),relative viability (AZD6482 + Foretinib; first compound 0.8 µM),relative viability (AZD6482 + Foretinib; first compound 2.53 µM),relative viability (AZD6482 + Foretinib; first compound 8 µM)
HCC-44,0.926,1.07,1.08,1.08,0.858,0.416,0.589,0.567,0.452,0.531,,,,,,,,,
HCC-827,0.47,0.462,0.473,0.346,0.251,0.899,0.814,0.848,0.636,0.628,0.398,0.237,0.258,0.379,0.986,0.878,0.945,0.678,0.499
NCI-H1623,,,,,,,,,,,0.517,0.604,0.507,0.524,0.778,0.888,0.923,0.703,0.682
NCI-H2347,0.276,0.271,0.222,0.265,0.238,,0.75,0.559,0.393,0.421,0.36,0.339,0.304,0.274,0.646,0.569,0.946,0.557,0.74
PC-14,0.704,0.747,0.794,0.455,0.622,0.575,0.632,0.591,0.376,0.771,0.236,0.277,0.197,0.0162,0.906,0.9,0.945,0.83,0.953
NCI-H1651,0.767,0.7,0.835,0.691,0.68,0.596,0.58,0.569,0.432,0.508,0.383,0.523,0.47,0.413,0.624,0.699,0.736,0.566,0.636
HARA,0.538,0.496,0.453,0.336,0.352,0.254,0.395,0.423,,0.59,0.275,0.271,0.255,0.266,0.811,0.809,0.889,0.663,0.61
NCI-H1650,0.62,0.455,0.614,0.546,0.527,0.55,,0.664,0.398,0.843,0.28,0.367,0.327,0.233,0.902,0.937,0.933,0.738,0.684
NCI-H1395,0.949,0.8,0.785,0.522,0.627,0.549,0.459,0.536,0.422,0.438,0.459,0.425,0.384,0.357,0.757,0.663,0.687,0.518,0.555
